According to patent publication US20040019082A1, “Reversible infertility in male mice following oral administration of alkylated imino sugars: a non-hormonal approach to male contraception” (United Therapeutics Corporation, priority 2002, published 2004):

Legend:
Assay type in all cases: in vivo, mouse
[1] = Body, gonad and organ weights of treated mice
male C57BL/6 mice = test: Mating assay, fertility of male mice; conditions: 250 mg/kg/day
Description: Treatment of mice—Male C57BL/6 mice were housed under standard non-sterile conditions. The mice were provided with water ad lib. and prior to drug administration were fed a diet of pelleted mouse chow (expanded Rat and Mouse Chow 3, SDS Ltd.) To administer the compounds of the present invention, the mice were fed a diet of powdered mouse chow (expanded Rat and Mouse Chow 1, ground, SDS Ltd.) containing either NB-DNJ, NB-DGJ, NN-6-MeDGJ, or DNJ. The diet and compound (both as dry solids) were mixed thoroughly, stored at room temperature, and used within 7 days of mixing.
Mating assays—To assess the fertility of male mice that were fed on a diet containing an iminosugar, a mating assay was used: typically six week old male C57BL/6 mice in groups of three were administered diet containing compound for five weeks (unless otherwise specified), after which each of them was caged with four untreated female C57BL/6 mice, and provided with standard pelleted chow. Females were at least 11 weeks old, and age-matched in each experiment. The male was removed from the females after 7 or 9 days, depending on the experiment; the females were monitored for vaginal mucous plugs, pregnancies, and, if any, litter sizes. To study any effect on female fertility six-week-old female C57BL/6 mice were treated with NB-DNJ for five weeks, after which each of them was caged with a non-treated age-matched male for four days.

liver glycogen = test: Liver glycogen levels in fed or starved mice; conditions: 250 mg/kg/day
Experimental: Liver glycogen levels were measured in untreated and NN-DGJ-treated mice (FIG. 6B), who were either provided food or starved.

thymus and spleen weights ([1]; 250 mg/kg/day): did not affect | breakdown of liver glycogen during starvation (liver glycogen): did not inhibit
Compound: CCCCCCCCCN1C[C@H](O)[C@@H](O)[C@@H](O)[C@H]1CO [NN-DGJ]
body weight relative to untreated mice ([1]; 250 mg/kg/day over a 40 day period, n=8): did not affect | fertility of male mice (male C57BL/6 mice; after five weeks of treatment, four treated mice): completely suppressed | litter size compared with untreated males (male C57BL/6 mice; six weeks after withdrawal): almost the same | fertility of male mice after withdrawal (male C57BL/6 mice; six weeks following withdrawal): fully regained fertility
